Test results taken from ChEMBL document CHEMBL1201862, “PubChem BioAssay data set” (2004).
Several values for one entry are separate records, joined by “and”; a condition that tells them apart may be missing. Equal values may be shown once. Activity calls are given as the source filed them.

Legend:
[1] = Vero E6 cell cytotoxicity, dose response, cytotoxicity control for non-replicating M. tuberculosis project, secondary assay (AID 492998); type: functional, VeroE6; conditions: Vero C1008
[2] = HepG2 cell cytotoxicity, dose response, cytotoxicity control for non-replicating M. tuberculosis project (AID 489018); type: functional; conditions: Mycobacterium tuberculosis
[3] = THP-1 cell cytotoxicity, dose response, cytotoxicity control for non-replicating M. tuberculosis project (AID 489025); type: functional
[4] = system: Streptococcus sp. 'group A'; test: growth inhibition of control SK(-) GAS strain, dose response, counter-screen for streptokinase expression inhibitor project, luminescence, kanamycin, BacTiterGlo, confirmation (AID 1900); type: functional, organism-based
[5] = system: Streptococcus; test: Group A Streptococcus viability loss, dose response, counter-screen for streptokinase expression inhibitor project, luminescence, BacTiterGlo (AID 1915); type: functional, organism-based;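 further: potency for reduction of bacterial viability or growth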
[6] = target: T1, Streptokinase A (Streptococcus pyogenes serotype M1, UniProt P10520); test: S. pyogenes streptokinase expression inhibitors, potency, dose response, plasminogen activation absorbance, OD405 (AID 1914); type: functional, Streptococcus pyogenes M1 GAS;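 further: secreted streptokinase activity via plasminogen activation per viability signal from cell pellet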
T1 sequence (P10520 whole entry): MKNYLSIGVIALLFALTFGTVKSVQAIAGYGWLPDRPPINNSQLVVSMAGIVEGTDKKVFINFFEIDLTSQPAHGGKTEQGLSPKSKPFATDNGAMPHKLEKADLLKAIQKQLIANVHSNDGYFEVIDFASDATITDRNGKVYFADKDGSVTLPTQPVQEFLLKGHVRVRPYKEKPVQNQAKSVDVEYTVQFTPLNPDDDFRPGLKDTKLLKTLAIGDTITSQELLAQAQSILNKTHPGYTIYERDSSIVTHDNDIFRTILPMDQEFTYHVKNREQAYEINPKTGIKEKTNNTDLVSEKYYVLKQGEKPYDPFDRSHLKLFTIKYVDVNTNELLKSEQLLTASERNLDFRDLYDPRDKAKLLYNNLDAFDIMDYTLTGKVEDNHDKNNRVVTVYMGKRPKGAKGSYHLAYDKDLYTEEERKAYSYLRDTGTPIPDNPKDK

[7] = cells; type: functional
[8] = target: Nonstructural protein 1 (Influenza A virus, UniProt Q194T2); type: functional, Influenza A virus (A/California/07/2009(H1N1))
[9] = target: T2, RNA-binding protein pos-1 (Caenorhabditis elegans, UniProt G5EF15); test: inhibitors of POS-1/mex-3 RNA binding, dose response, biochemical, fluorescence polarization (AID 1964);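 further: purified POS-1 fused to maltose binding protein made in E. coli; potency of compounds blocking POS-1 binding to fluorescent RNA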
T2 sequence (G5EF15 whole entry): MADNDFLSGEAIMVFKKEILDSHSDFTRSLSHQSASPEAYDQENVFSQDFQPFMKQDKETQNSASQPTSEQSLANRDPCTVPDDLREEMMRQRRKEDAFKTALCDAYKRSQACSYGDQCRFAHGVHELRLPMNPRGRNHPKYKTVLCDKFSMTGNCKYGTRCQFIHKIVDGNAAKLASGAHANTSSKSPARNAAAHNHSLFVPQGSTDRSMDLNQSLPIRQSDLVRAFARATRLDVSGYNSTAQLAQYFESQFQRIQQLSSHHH

[10] = target: T3, Mannose-6-phosphate isomerase (Homo sapiens, UniProt P34949); test: inhibitors of human PMI, primary screen, biochemical, fluorescence intensity, coupled assay (AID 1209)
T3 sequence (P34949 whole entry): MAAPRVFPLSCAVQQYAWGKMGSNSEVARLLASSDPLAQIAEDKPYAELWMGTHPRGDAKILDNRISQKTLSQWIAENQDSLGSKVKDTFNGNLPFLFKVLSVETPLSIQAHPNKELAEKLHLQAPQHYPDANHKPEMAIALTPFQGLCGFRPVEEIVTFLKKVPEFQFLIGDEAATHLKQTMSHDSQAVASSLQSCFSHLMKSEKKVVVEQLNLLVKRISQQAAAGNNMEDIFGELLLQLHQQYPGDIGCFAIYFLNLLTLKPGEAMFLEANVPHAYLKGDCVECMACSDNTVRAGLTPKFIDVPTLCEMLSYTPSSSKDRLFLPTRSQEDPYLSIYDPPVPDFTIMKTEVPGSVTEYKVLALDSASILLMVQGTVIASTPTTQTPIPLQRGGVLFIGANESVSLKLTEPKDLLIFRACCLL

[11] = target: Ras and Rab interactor 1/Tyrosine-protein kinase ABL1 (Homo sapiens, UniProt P00519+Q13671); type: functional;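 further: biochemical TR-FRET dose-response test measuring inhibition of binding between Rin1 and Abl proteins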
[12] = target: Eukaryotic translation initiation factor 4E (Mus musculus, UniProt P63073); test: eIF4E–eIF4G protein interaction inhibitors, dose response, biochemical, TR-FRET (AID 855); type: functional;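 further: potency for disrupting eIF4E binding to eIF4GI seen as loss of FRET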
[13] = target: T4, Zinc finger protein mex-5 (Caenorhabditis elegans, UniProt Q9XUB2); test: MEX-5/TCR-2 RNA interaction inhibitors, dose response, biochemical, C. elegans, fluorescence polarization (AID 1960)
T4 sequence (Q9XUB2 whole entry): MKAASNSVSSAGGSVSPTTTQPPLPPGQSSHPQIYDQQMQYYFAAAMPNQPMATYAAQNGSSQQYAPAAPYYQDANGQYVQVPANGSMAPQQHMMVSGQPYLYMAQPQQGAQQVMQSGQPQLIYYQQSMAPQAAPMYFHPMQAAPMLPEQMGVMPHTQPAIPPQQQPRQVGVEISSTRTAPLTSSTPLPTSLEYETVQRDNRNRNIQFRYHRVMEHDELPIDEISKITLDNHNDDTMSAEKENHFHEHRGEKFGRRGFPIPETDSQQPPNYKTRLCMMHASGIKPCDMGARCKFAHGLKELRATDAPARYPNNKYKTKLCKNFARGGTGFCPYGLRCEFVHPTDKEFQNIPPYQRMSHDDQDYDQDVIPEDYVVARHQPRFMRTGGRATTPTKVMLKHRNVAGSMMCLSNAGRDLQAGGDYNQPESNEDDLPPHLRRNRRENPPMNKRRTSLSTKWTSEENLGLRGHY

[14] = target: T5, Long-chain-fatty-acid--AMP ligase FadD28 (Mycobacterium tuberculosis, UniProt P9WQ59); test: Fluorescence polarization aasay to screen for inhibitors that compete for the binding of FadD28 to a bisubstrate Measured in Biochemical System Using Plate Reader - 2147-01_Inhibitor_Dose_CherryPick_Activity.; type: functional, Mycobacterium tuberculosis H37Rv
T5 sequence (P9WQ59 whole entry): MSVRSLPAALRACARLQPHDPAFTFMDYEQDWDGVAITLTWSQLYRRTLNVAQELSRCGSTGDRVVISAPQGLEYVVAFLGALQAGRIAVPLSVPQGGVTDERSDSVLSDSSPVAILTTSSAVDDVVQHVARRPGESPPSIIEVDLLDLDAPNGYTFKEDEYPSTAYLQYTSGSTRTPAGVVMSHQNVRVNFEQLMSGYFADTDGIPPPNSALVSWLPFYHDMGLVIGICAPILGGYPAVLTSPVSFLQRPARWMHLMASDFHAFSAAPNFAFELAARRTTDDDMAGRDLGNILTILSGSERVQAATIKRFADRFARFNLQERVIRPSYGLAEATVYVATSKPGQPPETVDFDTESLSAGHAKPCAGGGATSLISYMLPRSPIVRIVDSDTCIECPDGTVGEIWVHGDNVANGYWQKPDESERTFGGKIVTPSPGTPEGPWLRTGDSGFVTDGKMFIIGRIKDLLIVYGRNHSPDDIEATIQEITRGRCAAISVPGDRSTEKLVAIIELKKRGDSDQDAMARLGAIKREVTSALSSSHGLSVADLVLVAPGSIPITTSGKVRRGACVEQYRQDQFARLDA

[15] = target: T6, Protein Tat (Human immunodeficiency virus type 1 group M subtype B (isolate HXB2)(HIV-1), UniProt P04608); type: functional;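 further: tat binding to TAR RNA read out by fluorescence polarization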
T6 sequence (P04608 whole entry): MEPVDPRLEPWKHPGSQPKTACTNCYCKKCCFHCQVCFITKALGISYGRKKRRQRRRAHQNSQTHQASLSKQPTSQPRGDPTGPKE

[16] = target: T7, Coagulation factor XII (Homo sapiens, UniProt P00748); type: functional;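 further: activated factor XIIa alpha cleaving a fluorogenic AMC peptide substrate; inhibitor potency from loss of enzyme activity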
T7 sequence (P00748 whole entry): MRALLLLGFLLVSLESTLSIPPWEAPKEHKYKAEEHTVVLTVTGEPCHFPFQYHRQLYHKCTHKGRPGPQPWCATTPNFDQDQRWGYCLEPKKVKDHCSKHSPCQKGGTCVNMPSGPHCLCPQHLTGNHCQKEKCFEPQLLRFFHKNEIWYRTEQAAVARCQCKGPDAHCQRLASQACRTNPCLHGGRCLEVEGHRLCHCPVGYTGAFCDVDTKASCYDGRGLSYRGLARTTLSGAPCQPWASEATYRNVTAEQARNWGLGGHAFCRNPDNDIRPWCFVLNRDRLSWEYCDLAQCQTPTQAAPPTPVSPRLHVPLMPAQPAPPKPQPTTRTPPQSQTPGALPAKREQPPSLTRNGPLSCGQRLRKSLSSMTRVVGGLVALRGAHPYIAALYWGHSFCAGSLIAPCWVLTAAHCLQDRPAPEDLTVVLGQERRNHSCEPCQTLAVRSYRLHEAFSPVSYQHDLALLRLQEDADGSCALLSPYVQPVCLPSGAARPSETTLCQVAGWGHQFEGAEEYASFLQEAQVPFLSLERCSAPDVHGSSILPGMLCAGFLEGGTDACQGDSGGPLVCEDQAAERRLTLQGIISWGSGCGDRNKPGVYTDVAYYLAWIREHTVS

[17] = target: DNA dC->dU-editing enzyme APOBEC-3G (Homo sapiens, UniProt Q9HC16); test: Dose Response confirmation of small molecule APOBEC3G DNA Deaminase Inhibitors via a fluorescence-based single-stranded DNA deaminase assay. [Related pubchem assays (depositor defined):AID493012, AID493028]; type: functional
[18] = target: DNA dC->dU-editing enzyme APOBEC-3A (Homo sapiens, UniProt P31941); test: APOBEC3A DNA deaminase inhibitors, dose response, biochemical (AID 504722); type: functional
[19] = target: G-protein coupled receptor 55 (Homo sapiens, UniProt Q9Y2T6); test: GPR55 antagonists blocking LPI-driven arrestin recruitment, primary screen, imaging, U2OS, beta-arrestin-GFP, LPI agonist (AID 2013); type: functional;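 further: antagonist potency measured as reduced agonist-driven arrestin aggregation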
[20] = target: T8, Short transient receptor potential channel 4 (Mus musculus, UniProt Q9QUQ5); test: mouse TRPC4 channel inhibitors, dose response, cell-based, HEK293 TRPC4/mu-opioid, Fluo-4 calcium (AID 434942); type: functional;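 further: potency of inhibitors blocking the TRPC4 calcium response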
T8 sequence (Q9QUQ5 whole entry): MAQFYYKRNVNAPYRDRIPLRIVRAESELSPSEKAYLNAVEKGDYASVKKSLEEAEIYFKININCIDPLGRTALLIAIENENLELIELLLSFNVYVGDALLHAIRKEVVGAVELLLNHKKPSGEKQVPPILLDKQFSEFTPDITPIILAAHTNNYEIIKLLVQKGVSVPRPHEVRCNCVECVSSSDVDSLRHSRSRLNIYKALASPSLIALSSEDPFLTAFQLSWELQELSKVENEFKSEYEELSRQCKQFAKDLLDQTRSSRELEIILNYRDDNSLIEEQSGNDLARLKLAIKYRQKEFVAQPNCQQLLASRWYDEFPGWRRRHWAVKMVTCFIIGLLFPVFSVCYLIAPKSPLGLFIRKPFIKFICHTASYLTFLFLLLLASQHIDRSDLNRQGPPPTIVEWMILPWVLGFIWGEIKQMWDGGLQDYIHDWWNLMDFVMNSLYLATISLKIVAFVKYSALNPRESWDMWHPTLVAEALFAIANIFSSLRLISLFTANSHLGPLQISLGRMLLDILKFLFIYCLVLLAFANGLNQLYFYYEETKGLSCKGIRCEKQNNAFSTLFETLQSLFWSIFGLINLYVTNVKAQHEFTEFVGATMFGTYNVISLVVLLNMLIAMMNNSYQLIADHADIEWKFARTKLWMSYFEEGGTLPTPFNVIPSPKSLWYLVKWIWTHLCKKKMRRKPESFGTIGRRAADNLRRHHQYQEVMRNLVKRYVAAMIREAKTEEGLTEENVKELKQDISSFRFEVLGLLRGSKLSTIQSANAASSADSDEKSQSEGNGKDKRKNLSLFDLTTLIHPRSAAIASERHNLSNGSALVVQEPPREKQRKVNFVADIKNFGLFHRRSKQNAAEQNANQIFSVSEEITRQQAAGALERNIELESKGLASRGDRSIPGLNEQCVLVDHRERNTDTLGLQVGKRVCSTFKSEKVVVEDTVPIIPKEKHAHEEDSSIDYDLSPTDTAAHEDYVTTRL

Sequence of DNA dC->dU-editing enzyme APOBEC-3G (Q9HC16 whole entry): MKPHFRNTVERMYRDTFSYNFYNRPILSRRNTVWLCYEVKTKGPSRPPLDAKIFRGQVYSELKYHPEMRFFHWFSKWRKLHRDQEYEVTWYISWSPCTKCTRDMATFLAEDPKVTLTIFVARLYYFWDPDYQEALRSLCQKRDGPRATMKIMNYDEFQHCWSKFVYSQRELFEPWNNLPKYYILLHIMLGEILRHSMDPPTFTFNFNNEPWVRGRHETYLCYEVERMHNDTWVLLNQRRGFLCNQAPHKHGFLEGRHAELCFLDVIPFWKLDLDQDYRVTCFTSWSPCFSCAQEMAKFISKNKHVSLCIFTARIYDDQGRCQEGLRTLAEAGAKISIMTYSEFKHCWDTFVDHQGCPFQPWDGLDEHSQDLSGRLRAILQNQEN
Sequence of DNA dC->dU-editing enzyme APOBEC-3A (P31941 whole entry): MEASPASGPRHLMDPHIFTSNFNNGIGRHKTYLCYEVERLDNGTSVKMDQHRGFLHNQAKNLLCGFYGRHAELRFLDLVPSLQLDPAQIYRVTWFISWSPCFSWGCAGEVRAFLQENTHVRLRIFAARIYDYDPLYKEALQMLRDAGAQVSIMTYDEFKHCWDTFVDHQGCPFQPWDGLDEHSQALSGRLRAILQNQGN
Sequence of G-protein coupled receptor 55 (Q9Y2T6 whole entry): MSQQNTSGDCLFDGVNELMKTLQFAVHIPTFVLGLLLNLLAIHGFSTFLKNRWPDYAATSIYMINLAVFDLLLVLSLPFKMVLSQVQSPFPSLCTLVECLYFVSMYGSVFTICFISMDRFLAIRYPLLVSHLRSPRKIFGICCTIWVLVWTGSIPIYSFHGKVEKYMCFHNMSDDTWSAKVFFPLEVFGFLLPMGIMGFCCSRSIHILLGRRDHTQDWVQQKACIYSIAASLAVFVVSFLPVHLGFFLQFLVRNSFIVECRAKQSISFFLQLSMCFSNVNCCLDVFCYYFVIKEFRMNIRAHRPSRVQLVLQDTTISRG
Sequence of Nonstructural protein 1 (Q194T2 whole entry, the tested form may be a part): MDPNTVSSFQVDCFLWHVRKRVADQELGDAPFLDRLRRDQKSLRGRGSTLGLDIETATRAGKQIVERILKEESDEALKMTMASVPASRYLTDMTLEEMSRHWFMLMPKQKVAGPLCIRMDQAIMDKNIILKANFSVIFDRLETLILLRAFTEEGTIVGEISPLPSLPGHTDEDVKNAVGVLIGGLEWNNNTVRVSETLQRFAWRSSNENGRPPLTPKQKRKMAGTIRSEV
Sequence of Eukaryotic translation initiation factor 4E (P63073 whole entry): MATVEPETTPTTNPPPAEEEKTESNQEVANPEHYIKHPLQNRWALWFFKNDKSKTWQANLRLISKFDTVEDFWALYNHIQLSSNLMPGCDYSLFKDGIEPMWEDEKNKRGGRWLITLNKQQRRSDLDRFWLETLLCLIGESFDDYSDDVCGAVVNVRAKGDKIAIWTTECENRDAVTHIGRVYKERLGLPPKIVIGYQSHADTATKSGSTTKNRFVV
Sequence of Ras and Rab interactor 1/Tyrosine-protein kinase ABL1 (P00519 whole entry): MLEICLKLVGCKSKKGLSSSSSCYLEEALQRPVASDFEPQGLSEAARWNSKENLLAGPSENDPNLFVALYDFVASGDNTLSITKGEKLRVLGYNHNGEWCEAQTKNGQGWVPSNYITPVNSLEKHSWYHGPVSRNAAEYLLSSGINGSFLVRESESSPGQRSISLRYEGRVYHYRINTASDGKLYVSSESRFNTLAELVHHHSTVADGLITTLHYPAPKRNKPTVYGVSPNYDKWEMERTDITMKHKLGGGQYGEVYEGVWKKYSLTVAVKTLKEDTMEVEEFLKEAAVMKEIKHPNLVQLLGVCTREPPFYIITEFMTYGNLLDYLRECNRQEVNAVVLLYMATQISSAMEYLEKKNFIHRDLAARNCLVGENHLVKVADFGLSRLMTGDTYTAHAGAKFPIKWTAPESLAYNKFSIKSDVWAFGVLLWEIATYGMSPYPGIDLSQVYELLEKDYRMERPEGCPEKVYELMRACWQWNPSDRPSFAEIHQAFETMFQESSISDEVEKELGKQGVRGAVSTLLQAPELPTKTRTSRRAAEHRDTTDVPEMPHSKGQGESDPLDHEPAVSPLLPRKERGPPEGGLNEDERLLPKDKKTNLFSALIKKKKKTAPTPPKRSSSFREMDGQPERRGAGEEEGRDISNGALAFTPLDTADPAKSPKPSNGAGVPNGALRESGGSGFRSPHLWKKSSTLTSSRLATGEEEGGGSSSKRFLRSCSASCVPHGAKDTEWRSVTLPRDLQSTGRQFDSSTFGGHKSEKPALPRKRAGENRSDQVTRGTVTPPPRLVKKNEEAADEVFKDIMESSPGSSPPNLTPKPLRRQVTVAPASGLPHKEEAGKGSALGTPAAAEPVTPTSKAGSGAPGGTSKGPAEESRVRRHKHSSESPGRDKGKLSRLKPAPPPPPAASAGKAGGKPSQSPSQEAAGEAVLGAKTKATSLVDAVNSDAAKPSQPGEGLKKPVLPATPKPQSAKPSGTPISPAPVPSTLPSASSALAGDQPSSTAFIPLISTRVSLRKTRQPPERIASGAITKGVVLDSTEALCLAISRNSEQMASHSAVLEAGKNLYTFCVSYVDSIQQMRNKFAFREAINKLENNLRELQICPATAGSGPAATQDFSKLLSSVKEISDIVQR
Sequence of Ras and Rab interactor 1/Tyrosine-protein kinase ABL1 (Q13671 whole entry): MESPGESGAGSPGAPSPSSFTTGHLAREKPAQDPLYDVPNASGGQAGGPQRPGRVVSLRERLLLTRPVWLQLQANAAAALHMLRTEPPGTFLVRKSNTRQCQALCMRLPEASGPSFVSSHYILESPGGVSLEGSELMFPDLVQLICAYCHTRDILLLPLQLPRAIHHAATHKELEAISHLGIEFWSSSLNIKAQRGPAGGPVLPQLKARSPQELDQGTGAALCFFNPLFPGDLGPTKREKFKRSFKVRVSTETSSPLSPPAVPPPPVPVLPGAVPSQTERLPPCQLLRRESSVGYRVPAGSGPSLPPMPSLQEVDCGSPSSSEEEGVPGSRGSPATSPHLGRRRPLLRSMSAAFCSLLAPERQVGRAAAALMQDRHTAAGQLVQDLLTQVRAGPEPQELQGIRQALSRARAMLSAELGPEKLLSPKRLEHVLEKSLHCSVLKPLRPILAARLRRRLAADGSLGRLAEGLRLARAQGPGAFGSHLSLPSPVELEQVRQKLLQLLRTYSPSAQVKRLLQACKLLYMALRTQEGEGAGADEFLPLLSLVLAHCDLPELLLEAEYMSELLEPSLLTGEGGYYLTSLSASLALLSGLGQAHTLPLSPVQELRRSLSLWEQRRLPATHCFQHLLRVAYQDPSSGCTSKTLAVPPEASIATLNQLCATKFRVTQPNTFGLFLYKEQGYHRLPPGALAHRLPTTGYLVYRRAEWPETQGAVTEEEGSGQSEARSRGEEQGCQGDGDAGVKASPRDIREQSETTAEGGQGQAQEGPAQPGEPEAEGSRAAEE

## O=C(Nc1nnc(-c2ccncc2)o1)c1ccc(Br)s1
[1]
  CC50: 16.8 µM (active)
[2]
  CC50: 19.3 µM (active)
[3]
  CC50: 23.7 µM (active)
[4]
  EC50: 3.57 µM (active)
[5]
  EC50: 11.8 µM (active)
[6]
  EC50: > 150 µM (not active)
[7]
  IC50: 18.3 µM (active)

## Cc1c2cc(O)c(=O)cc-2oc2cc(O)c(O)cc12
[8]
  IC50: 30.5 µM (active)
[9]
  EC50: 1.9 µM (inconclusive)
[10]
  IC50: 3.55 µM (active)
[11]
  IC50: 835 nM (active)
[12]
  IC50: 43.3 µM (inactive)
[13]
  EC50: 82 nM (active)
[14]
  AC50: 4.65 µM (active)
[15]
  IC50: 31.3 µM (inconclusive) and > 52.2 µM (active)

## Cc1nc(SCc2ccccc2)c2ccsc2n1
[16]
  IC50: > 50 µM (inactive)

## CC(=O)NC(CC(=O)OCC(=O)c1c(N)n(C)c(=O)n(C)c1=O)c1ccccc1 (centres undefined)
[16]
  IC50: > 50 µM (inactive)

## Cc1cc(-c2nnc(S)n2/N=C/c2ccc(C)o2)n[nH]1
[17]
  IC50: 5.66 µM (active)
[18]
  IC50: > 100 µM (inactive)

## CC(C)CC(=O)NC(Oc1ccc(Cl)cc1)C(Cl)(Cl)Cl (centres undefined)
[19]
  IC50: 1.17 µM (active)

## Cc1ccc(-n2c(C)cc(C3=NN=C(NC4CC4)SC3)c2C)cc1C
[1]
  CC50: > 20 µM (active)
[2]
  CC50: > 20 µM (active)
[3]
  CC50: 20 µM (active)
[7]
  IC50: 39 µM (active)

## CCOC(=O)c1c(N)sc(C(O)(C(F)(F)F)C(F)(F)F)c1-c1ccccc1
[20]
  EC50: 7.5 µM (active)
[19]
  IC50: 3.66 µM (active)

## N#Cc1cnn(Cc2ccc(Cl)cc2)c1N
[16]
  IC50: > 50 µM (inactive)

## CCn1c(S)nnc1CSCc1ccccc1
[17]
  IC50: 8.31 µM (active)
[18]
  IC50: > 100 µM (inactive)
